Here are results for one molecule from US8344145B2, “Salts of 2-substituted quinolines” (priority 2008, dated 2013).

Like-named read-outs stand apart in the source and are kept apart here. Bounds are passed on as bounds.

Series [1] can be described thus: Hygroscopicity: water vapour sorption/desorption isotherm (DVS-1000). It counts as physicochemical. Particulars: 25° C./60% relative humidity, in comparison with weight equilibrated at 0% relative humidity at 25° C. How it is done:
The hygroscopicity of the 2-(n-propyl)quinoline camsylate crystals is evaluated by studying the sorption/desorption isotherm of water in the vapor phase on a device of DVS-1000 type sold by SMS.
The sample, analyzed in a quartz pan with a specimen size of the order of 10 mg, is subjected to two cycles of variation in relative humidity (RH) which are linked together continuously. Each cycle comprises two stages, adsorption and then desorption of water, during which the relative humidity in the measuring chamber is increased and then decreased gradually according to the conditions described in table 2.
The sample is first dried under a stream of filtered dry air until its weight has stabilized. The stages of adsorption and of desorption are then made successively. The carrier gas used to maintain the relative humidity at a set percentage is air dried upstream of the device and delivered at a flow rate of 100 ml/min. During the progression of the program, the temperature in the measuring chamber is maintained at 25° C.

The subject of series [2] is female CD-1 mice. Particulars: 5 animals. How it is done: (§1) 250 mg of carboxymethylcellulose are dissolved in 50 ml of a 5% glucose solution. 5 ml aliquots containing 0.5% of Tween 80 are emulsified with the quinoline salts (final concentrations at 0.4 mg/ml, 4 mg/ml and 40 mg/ml). The emulsions are subsequently homogenized. The emulsions are administered by force feeding in a single dose to four groups of five female CD-1 mice at the concentrations of 10 mg/kg, 100 mg/kg and 1000 mg/kg and without compounds (control group). The control group receives a glucose-comprising emulsion containing 0.5% of carboxymethyl-cellulose (CMC) and […]. The behavior of the animals is observed and the number of deaths is counted after 1 min, 15 min, 30 min, 1 h, 4 h, 8 h and each day for 14 days. On the final day, a blood sample is taken. Biochemical analyses are carried out in order to evaluate the nephrotoxicity and the hepatotoxicity, the levels of creatinine, of aspartate aminotransferase (ASAT), of alanine aminotransferase (ALAI) and of cholesterol being quantitatively determined.

Series [3] relates to female CD-1 mice. The series can be described thus: Acute toxicity: blood biochemical parameters on the final day (nephrotoxicity, hepatotoxicity). The following applies: blood sample on final day (day 14). How it is done: as §1
Series [4] is described as follows: Chemical stability of solutions in five solvents, HPLC daily for 9 days. The following applies: 200 μg/ml in methanol, pH 7 buffer, camphorsulfonic acid pH 2, DMSO, CMC 0.5%/Tween 80 0.5%, 4° C., ambient with light, ambient without light.
Experimental: The quinoline salts are dissolved at a concentration of 200 μg/ml in five different solvents: methanol, an aqueous solution buffered at pH 7, an aqueous camphorsulfonic acid solution at pH 2, dimethyl sulfoxide (DMSO) and an aqueous solution comprising a mixture of carboxymethylcellulose at 0.5% and Tween 80 at 0.5%.
Each preparation is divided into three parts which are stored under different conditions of temperature and of luminosity: at 4° C., at ambient temperature under the influence of light and at ambient temperature with the exclusion of light. The samples are diluted (1:20) and then analyzed by high performance liquid chromotography (HPLC) daily for 9 days.
Use was made, in carrying out the high performance liquid chromotography analysis, of a Waters LC system comprising a model 600 pump with inline degassing and, as detector, a 996 photodiode detector device. The acquisition of the data was carried out by the use of the Empower® program (Waters, France). The column used was a Symmetry Shield RP18, 3.5 μm 4.6×150 mm. […] The UV absorbance spectra were recorded at between 210 and 400 nm. The chromatogram of the propyl salt was recorded at 233 nm and that of the alcohol derivative at 249 nm.

Regarding `CC1(C)C2CCC1(CS(=O)(=O)O)C(=O)C2.CCCc1ccc2ccccc2n1` (centres unmarked) [Camphorsulfonate salt of 2-(n-propyl)quinoline], in series [1], the “increase in weight (water sorption)” value is recorded as “less than 2%”. Further, the acute toxicity observation result in the series with female CD-1 mice [2] (single dose 10 mg/kg oral route) was “absence of toxicity”; in the series on female CD-1 mice [2] (single dose 100 mg/kg oral route) it was “absence of toxicity”; in the series with female CD-1 mice [2] (single dose 1 g/kg oral route, t4 h) it was “t4 h = absence of toxicity”. In the series with female CD-1 mice [2] (single dose 1 g/kg oral route, t15 min), the “mice showing signs of lethargy” value is recorded as “t15 min = 3 mice showed”. Also, the lethargic mice entry in the series with female CD-1 mice [2] (single dose 1 g/kg oral route, t1 h) is on record as “t1 h = 2 lethargic mice”. For the same molecule, the ALAT with female CD-1 mice [3] (dose 10 mg/kg oral) worked out at 215 ± 123 IU/l; in the series on female CD-1 mice [3] (dose 100 mg/kg oral) it was 168 ± 67 IU/l; with female CD-1 mice [3] (dose 1 g/kg oral), 199 ± 89 IU/l. In addition, the ASAT stood at 410 ± 57 IU/l with female CD-1 mice [3] (dose 10 mg/kg oral), 515 ± 72 IU/l in the series with female CD-1 mice [3] (dose 100 mg/kg oral) and 422 ± 187 IU/l in the series with female CD-1 mice [3] (dose 1 g/kg oral). The Cholesterol came to 3.9 ± 0.3 mM in the series with female CD-1 mice [3] (dose 10 mg/kg oral), 4.1 ± 0.5 mM in the series with female CD-1 mice [3] (dose 100 mg/kg oral) and 3.8 ± 0.4 mM in the series on female CD-1 mice [3] (dose 1 g/kg oral). In addition, the Creatinine in the series with female CD-1 mice [3] (dose 10 mg/kg oral), in the series with female CD-1 mice [3] (dose 100 mg/kg oral) and with female CD-1 mice [3] (dose 1 g/kg oral) was less than 18 µM throughout. Moreover, the results for the “chemical stability in solution” value in series [4] (listed as 2-(n-propyl)quinoline in the form of the camphorsulfonic acid salt) and in series [4] (listed as propyl salt) were “chemical stability compatible with the development of a medicament” and “stable whatever the conditions tested”, respectively.
